From patent publication US20130178597A1, “POLYIMIDE PRECURSOR, POLYIMIDE, AND MATERIALS TO BE USED IN PRODUCING SAME” (UBE INDUSTRIES, LTD., priority 2010, published 2013)

What was measured:
[1] = Solubility of s-BPDA at 25° C. in solvent; conditions: s-BPDA in the solvent used in the example
Experimental: The non-dissolved s-BPDA was filtered through filter paper 5A manufactured by Advantec, Inc. to obtain s-BPDA saturated solution. 5 g of the s-BPDA saturated solution was charged into an aluminum dish, heated for 1 hour at 80° C., and then heated for 1 hour at 200° C. The solubility was calculated by determining the mass of s-BPDA remaining in the saturated solution based on the residue after heating.

[2] = Solubility of i-BPDA at 25° C. in solvent; format: physicochemical; conditions: i-BPDA in the solvent used in the example
Experimental: The non-dissolved i-BPDA was filtered through filter paper 5A manufactured by Advantec, Inc. to obtain i-BPDA saturated solution. 5 g of the i-BPDA saturated solution was charged into an aluminum dish, heated for 1 hour at 80° C., and then heated for 1 hour at 200° C. The solubility was calculated by determining the mass of i-BPDA remaining in the saturated solution based on the residue after heating.

[3] = Light transmittance at 400 nm of i-BPDA powder, 10 mass % in 2 N aqueous sodium hydroxide; format: physicochemical; conditions: light path 1 cm
Experimental: (§1) A predetermined amount of i-BPDA powder was dissolved in a 2 N aqueous solution of sodium hydroxide to obtain a 10 mass % aqueous solution. Using a MCPD-300 manufactured by Otsuka Electronics Co., Ltd., and a standard cell having a light path length of 1 cm, the light transmittance at 400 nm of the i-BPDA solution was measured using the 2 N aqueous solution of sodium hydroxide as a blank.

[4] = Light transmittance at 400 nm of s-BPDA powder, 10 mass % in 2 N aqueous sodium hydroxide; format: physicochemical; conditions: light path 1 cm
Experimental: as §1, with “s-BPDA” for “i-BPDA”

[5] = Light transmittance of solvent at 400 nm after heating with refluxing; format: physicochemical; conditions: heated to reflux for 3 hours under nitrogen atmosphere
Experimental: For light transmittance after heating with refluxing, measurement was carried out using a solvent that had been heated to reflux for 3 hours under nitrogen atmosphere having oxygen concentration of 200 ppm or less.

[6] = Light transmittance of solvent at 400 nm; format: physicochemical; conditions: light path 1 cm, water as a blank
Experimental: Using a MCPD-300 manufactured by Otsuka Electronics Co., Ltd., and a standard cell having a light path length of 1 cm, the light transmittance of a solvent at 400 nm was measured using water as a blank.

[7] = Light transmittance at 400 nm of a-BPDA powder, 10 mass % in 2 N aqueous sodium hydroxide; format: physicochemical; conditions: light path 1 cm
[8] = Light transmittance at 400 nm of trans-1,4-diaminocyclohexane powder, 10 mass % in pure water; format: physicochemical; conditions: light path 1 cm
Experimental: as §1, with “trans-1,4-diaminocyclohexane” for “i-BPDA”, “pure water” for “a 2 N aqueous solution of sodium hydroxide”, “pure water” for “the 2 N aqueous solution of sodium hydroxide”

Compound: O=C1OC(=O)c2cc(-c3ccc4c(c3)C(=O)OC4=O)ccc21 [Example D5, 3,3′,4,4′-Biphenyltetracarboxylic dianhydride]
- Solubility of used solvent at 25° C. [1]: 0.1 g/100 g

Compound: O=C1OC(=O)c2c1cccc2-c1cccc2c1C(=O)OC2=O [Comparative Example F2, 2,2′,3,3′-Biphenyltetracarboxylic dianhydride, reference compound]
- Solubility at 25° C. [2]: <0.1 g/100 g
- Light Transmittance at 400 nm (i-BPDA) [3]: 79%

Compound: O=C1OC(=O)c2cc(-c3ccc4c(c3)C(=O)OC4=O)ccc21 [Comparative Example D2, 3,3′,4,4′-Biphenyltetracarboxylic dianhydride, reference compound]
- Solubility of used solvent at 25° C. [1]: <0.1 g/100 g
- light transmittance of obtained s-BPDA powder at 400 nm [4]: 75%

Compound: O=C1OC(=O)c2c1cccc2-c1cccc2c1C(=O)OC2=O [Example F3, 2,2′,3,3′-Biphenyltetracarboxylic dianhydride]
- Solubility at 25° C. [2]: 6.8 g/100 g
- Light Transmittance at 400 nm (i-BPDA) [3]: 93%

Compound: O=C1OC(=O)c2cc(-c3ccc4c(c3)C(=O)OC4=O)ccc21 [Comparative Example D5, 3,3′,4,4′-Biphenyltetracarboxylic dianhydride, reference compound]
- light transmittance of obtained s-BPDA powder at 400 nm [4]: 3%

Compound: CN1CCCC1=O [NMP (99.96%), N-methyl-2-pyrrolidone]
- Light Transmittance at 400 nm after reflux (solvent) [5]: 41%
- Light Transmittance at 400 nm (solvent) [6]: 89%

Compound: O=C1OC(=O)c2cc(-c3ccc4c(c3)C(=O)OC4=O)ccc21 [Comparative Example D3, 3,3′,4,4′-Biphenyltetracarboxylic dianhydride, reference compound]
- Solubility of used solvent at 25° C. [1]: <0.1 g/100 g
- light transmittance of obtained s-BPDA powder at 400 nm [4]: 75%

Compound: O=C1OC(=O)c2cc(-c3cccc4c3C(=O)OC4=O)ccc21 [Example C5, 2,3,3′,4′-Biphenyltetracarboxylic dianhydride]
- light transmittance at 400 nm (a-BPDA powder) [7]: 89%

Compound: O=C1OC(=O)c2cc(-c3ccc4c(c3)C(=O)OC4=O)ccc21 [Example D1, 3,3′,4,4′-Biphenyltetracarboxylic dianhydride]
- Solubility of used solvent at 25° C. [1]: 1.3 g/100 g
- light transmittance of obtained s-BPDA powder at 400 nm [4]: 81%

Compound: N[C@H]1CC[C@H](N)CC1 [Example E2, trans-1,4-diaminocyclohexane]
- Light Transmittance at 400 nm (trans-1,4-diaminocyclohexane powder) [8]: 96%

Compound: O=C1OC(=O)c2cc(-c3ccc4c(c3)C(=O)OC4=O)ccc21 [Example D7, 3,3′,4,4′-Biphenyltetracarboxylic dianhydride]
- Solubility of used solvent at 25° C. [1]: 0.3 g/100 g
- light transmittance of obtained s-BPDA powder at 400 nm [4]: 79%

Compound: O=C1OC(=O)c2cc(-c3ccc4c(c3)C(=O)OC4=O)ccc21 [Comparative Example D1, 3,3′,4,4′-Biphenyltetracarboxylic dianhydride, reference compound]
- light transmittance of obtained s-BPDA powder at 400 nm [4]: 75%

Compound: O=C1OC(=O)c2cc(-c3ccc4c(c3)C(=O)OC4=O)ccc21 [Example D6, 3,3′,4,4′-Biphenyltetracarboxylic dianhydride]
- Solubility of used solvent at 25° C. [1]: 0.4 g/100 g

Compound: O=C1OC(=O)c2c1cccc2-c1cccc2c1C(=O)OC2=O [Example F4, 2,2′,3,3′-Biphenyltetracarboxylic dianhydride]
- Light Transmittance at 400 nm (i-BPDA) [3]: 93%

Compound: CN1CCCC1=O [NMP (99.62%), N-methyl-2-pyrrolidone]
- Light Transmittance at 400 nm after reflux (solvent) [5]: 0.1%
- Light Transmittance at 400 nm (solvent) [6]: 88%

Compound: O=C1OC(=O)c2c1cccc2-c1cccc2c1C(=O)OC2=O [Example F7, 2,2′,3,3′-Biphenyltetracarboxylic dianhydride]
- Light Transmittance at 400 nm (i-BPDA) [3]: 89%

Compound: O=C1OC(=O)c2cc(-c3cccc4c3C(=O)OC4=O)ccc21 [Comparative Example C1, 2,3,3′,4′-Biphenyltetracarboxylic dianhydride, reference compound]
- light transmittance at 400 nm (a-BPDA powder) [7]: 77%

Compound: N[C@H]1CC[C@H](N)CC1 [Referential Example E1, trans-1,4-diaminocyclohexane]
- Light Transmittance at 400 nm (trans-1,4-diaminocyclohexane powder) [8]: 86%

Compound: O=C1OC(=O)c2cc(-c3cccc4c3C(=O)OC4=O)ccc21 [Example C3, 2,3,3′,4′-Biphenyltetracarboxylic dianhydride]
- light transmittance at 400 nm (a-BPDA powder) [7]: 94%

Compound: O=C1OC(=O)c2cc(-c3cccc4c3C(=O)OC4=O)ccc21 [Example C2, 2,3,3′,4′-Biphenyltetracarboxylic dianhydride]
- light transmittance at 400 nm (a-BPDA powder) [7]: 97%

Compound: O=C1OC(=O)c2c1cccc2-c1cccc2c1C(=O)OC2=O [Example F6, 2,2′,3,3′-Biphenyltetracarboxylic dianhydride]
- Light Transmittance at 400 nm (i-BPDA) [3]: 95%

Compound: O=C1OC(=O)c2cc(-c3ccc4c(c3)C(=O)OC4=O)ccc21 [Example D3, 3,3′,4,4′-Biphenyltetracarboxylic dianhydride]
- Solubility of used solvent at 25° C. [1]: 2.3 g/100 g
- light transmittance of obtained s-BPDA powder at 400 nm [4]: 82%

Compound: O=C1OC(=O)c2cc(-c3ccc4c(c3)C(=O)OC4=O)ccc21 [Example D4, 3,3′,4,4′-Biphenyltetracarboxylic dianhydride]
- light transmittance of obtained s-BPDA powder at 400 nm [4]: 78%

Compound: N[C@H]1CC[C@H](N)CC1 [Referential Example E2, trans-1,4-diaminocyclohexane]
- Light Transmittance at 400 nm (trans-1,4-diaminocyclohexane powder) [8]: 89%

Compound: O=C1OC(=O)c2cc(-c3cccc4c3C(=O)OC4=O)ccc21 [Comparative Example C2, 2,3,3′,4′-Biphenyltetracarboxylic dianhydride, reference compound]
- light transmittance at 400 nm (a-BPDA powder) [7]: 81%

Compound: O=C1OC(=O)c2cc(-c3ccc4c(c3)C(=O)OC4=O)ccc21 [Example D2, 3,3′,4,4′-Biphenyltetracarboxylic dianhydride]
- light transmittance of obtained s-BPDA powder at 400 nm [4]: 81%

Compound: O=C1OC(=O)c2c1cccc2-c1cccc2c1C(=O)OC2=O [Example F1, 2,2′,3,3′-Biphenyltetracarboxylic dianhydride]
- Solubility at 25° C. [2]: 3.2 g/100 g
- Light Transmittance at 400 nm (i-BPDA) [3]: 91%

Compound: O=C1OC(=O)c2cc(-c3cccc4c3C(=O)OC4=O)ccc21 [Example C4, 2,3,3′,4′-Biphenyltetracarboxylic dianhydride]
- light transmittance at 400 nm (a-BPDA powder) [7]: 92%

Compound: O=C1OC(=O)c2c1cccc2-c1cccc2c1C(=O)OC2=O [Example F2, 2,2′,3,3′-Biphenyltetracarboxylic dianhydride]
- Solubility at 25° C. [2]: 4.4 g/100 g
- Light Transmittance at 400 nm (i-BPDA) [3]: 92%

Compound: O=C1OC(=O)c2c1cccc2-c1cccc2c1C(=O)OC2=O [Comparative Example F3, 2,2′,3,3′-Biphenyltetracarboxylic dianhydride, reference compound]
- Light Transmittance at 400 nm (i-BPDA) [3]: 66%

Compound: O=C1OC(=O)c2c1cccc2-c1cccc2c1C(=O)OC2=O [Comparative Example F1, 2,2′,3,3′-Biphenyltetracarboxylic dianhydride, reference compound]
- Light Transmittance at 400 nm (i-BPDA) [3]: 79%

Compound: O=C1OC(=O)c2cc(-c3ccc4c(c3)C(=O)OC4=O)ccc21 [Comparative Example D4, 3,3′,4,4′-Biphenyltetracarboxylic dianhydride, reference compound]
- light transmittance of obtained s-BPDA powder at 400 nm [4]: 72%

Compound: O=C1OC(=O)c2cc(-c3ccc4c(c3)C(=O)OC4=O)ccc21 [Example D8, 3,3′,4,4′-Biphenyltetracarboxylic dianhydride]
- light transmittance of obtained s-BPDA powder at 400 nm [4]: 91%

Compound: O=C1OC(=O)c2c1cccc2-c1cccc2c1C(=O)OC2=O [Example F5, 2,2′,3,3′-Biphenyltetracarboxylic dianhydride]
- Light Transmittance at 400 nm (i-BPDA) [3]: 91%

Compound: O=C1OC(=O)c2cc(-c3cccc4c3C(=O)OC4=O)ccc21 [Example C1, 2,3,3′,4′-Biphenyltetracarboxylic dianhydride]
- light transmittance at 400 nm (a-BPDA powder) [7]: 98%

Compound: O=C1OC(=O)c2cc(-c3cccc4c3C(=O)OC4=O)ccc21 [Comparative Example C4, 2,3,3′,4′-Biphenyltetracarboxylic dianhydride, reference compound]
- light transmittance at 400 nm (a-BPDA powder) [7]: 84%
